Measured values taken from the kinase profiling compilation of Christmann-Franck et al. (2016).

What was measured:
Assay in all cases: radiometric filter-binding kinase assay, Kinase HotSpot
Conditions in all cases: compound 0.5 µM; ATP 10 µM
CDC42BPA (human) = CDC42BPA (human) (UniProt Q5VT25)
TXK (human) = TXK (human) (UniProt P42681)
PIM1 (human) = PIM1 (human) (UniProt P11309)
AKT3 (human) = AKT3 (human) (UniProt Q9Y243)
EPHA5 (human) = EPHA5 (human) (UniProt P54756)
EPHA2 (human) = EPHA2 (human) (UniProt P29317)
DSTYK (human) = DSTYK (human) (UniProt Q6XUX3)
PIM2 (human) = PIM2 (human) (UniProt Q9P1W9)
CSNK1G1 (human) = CSNK1G1 (human) (UniProt Q9HCP0)
CDK1 CCNB1 (human) = CDK1 CCNB1 (human) (UniProt P06493+P14635)
NTRK1 (human) = NTRK1 (human) (UniProt P04629)
MET (human) = MET (human) (UniProt P08581)
ACVR1B (human) = ACVR1B (human) (UniProt P36896)
MAP3K7 TAB1 (human) = MAP3K7 TAB1 (human) (UniProt O43318+Q15750)
PTK2B (human) = PTK2B (human) (UniProt Q14289)
MAPK10 (human) = MAPK10 (human) (UniProt P53779)
RPS6KA3 KD1 KD2 (human) = RPS6KA3 KD1 KD2 (human) (UniProt P51812)
ITK (human) = ITK (human) (UniProt Q08881)
PRKCB1 (human) = PRKCB1 (human) (UniProt P05771)
RPS6KB1 (human) = RPS6KB1 (human) (UniProt P23443)
YES1 (human) = YES1 (human) (UniProt P07947)
DAPK3 (human) = DAPK3 (human) (UniProt O43293)
STK25 (human) = STK25 (human) (UniProt O00506)
PRKCD (human) = PRKCD (human) (UniProt Q05655)
PRKD3 (human) = PRKD3 (human) (UniProt O94806)
DYRK1B (human) = DYRK1B (human) (UniProt Q9Y463)
MAP3K2 (human) = MAP3K2 (human) (UniProt Q9Y2U5)
RPS6KA4 KD2 (human) = RPS6KA4 KD2 (human) (UniProt O75676)
VRK1 (human) = VRK1 (human) (UniProt Q99986)
MAP3K5 (human) = MAP3K5 (human) (UniProt Q99683)
FGFR3 (human) = FGFR3 (human) (UniProt P22607)
MAP3K14 (human) = MAP3K14 (human) (UniProt Q99558)
CHEK2 (human) = CHEK2 (human) (UniProt O96017)
BTK (human) = BTK (human) (UniProt Q06187)
ADRBK2 (human) = ADRBK2 (human) (UniProt P35626)
HIPK3 (human) = HIPK3 (human) (UniProt Q9H422)
CAMK2G (human) = CAMK2G (human) (UniProt Q13555)
CAMKK1 (human) = CAMKK1 (human) (UniProt Q8N5S9)
MAPK11 (human) = MAPK11 (human) (UniProt Q15759)
PAK3 (human) = PAK3 (human) (UniProt O75914)
TNK2 (human) = TNK2 (human) (UniProt Q07912)

Chain of CAMK2G (human) (Q13555 whole entry, looked up): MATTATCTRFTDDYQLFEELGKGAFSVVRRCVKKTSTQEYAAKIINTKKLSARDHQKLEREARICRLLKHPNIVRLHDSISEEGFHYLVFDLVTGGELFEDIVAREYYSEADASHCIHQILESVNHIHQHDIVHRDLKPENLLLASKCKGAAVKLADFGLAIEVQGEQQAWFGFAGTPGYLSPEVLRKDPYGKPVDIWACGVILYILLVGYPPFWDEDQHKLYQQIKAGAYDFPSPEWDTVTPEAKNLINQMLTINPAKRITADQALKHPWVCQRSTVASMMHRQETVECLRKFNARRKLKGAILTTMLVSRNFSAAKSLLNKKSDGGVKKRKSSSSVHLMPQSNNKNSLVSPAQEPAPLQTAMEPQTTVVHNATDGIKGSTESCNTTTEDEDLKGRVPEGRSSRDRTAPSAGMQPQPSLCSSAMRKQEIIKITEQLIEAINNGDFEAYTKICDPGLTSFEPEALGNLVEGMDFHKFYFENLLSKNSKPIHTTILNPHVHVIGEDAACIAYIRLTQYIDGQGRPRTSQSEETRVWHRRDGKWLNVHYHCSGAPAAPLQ
Chain of DAPK3 (human) (O43293 whole entry, looked up): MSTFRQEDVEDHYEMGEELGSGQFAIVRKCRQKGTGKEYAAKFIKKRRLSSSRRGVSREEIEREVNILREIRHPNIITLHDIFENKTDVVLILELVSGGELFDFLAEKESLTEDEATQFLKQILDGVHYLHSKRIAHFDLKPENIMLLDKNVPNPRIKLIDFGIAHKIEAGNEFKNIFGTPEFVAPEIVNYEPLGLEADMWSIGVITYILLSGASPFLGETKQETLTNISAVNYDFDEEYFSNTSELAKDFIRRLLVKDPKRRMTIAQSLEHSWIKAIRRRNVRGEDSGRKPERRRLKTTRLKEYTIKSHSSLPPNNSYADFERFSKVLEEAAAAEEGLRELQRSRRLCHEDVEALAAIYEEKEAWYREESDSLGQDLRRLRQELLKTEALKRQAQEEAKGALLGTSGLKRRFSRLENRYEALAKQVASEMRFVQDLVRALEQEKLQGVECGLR
Chain of PIM2 (human) (Q9P1W9 whole entry, looked up): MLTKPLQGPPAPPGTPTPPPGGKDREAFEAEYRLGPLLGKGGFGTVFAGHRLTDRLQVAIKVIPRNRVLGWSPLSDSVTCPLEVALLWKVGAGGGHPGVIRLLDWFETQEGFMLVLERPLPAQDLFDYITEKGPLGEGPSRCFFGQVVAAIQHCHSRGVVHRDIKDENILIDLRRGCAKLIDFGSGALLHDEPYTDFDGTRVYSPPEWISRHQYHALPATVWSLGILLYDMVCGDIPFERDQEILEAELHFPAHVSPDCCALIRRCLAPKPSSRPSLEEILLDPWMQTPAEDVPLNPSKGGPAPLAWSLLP
Chain of EPHA2 (human) (P29317 whole entry, looked up): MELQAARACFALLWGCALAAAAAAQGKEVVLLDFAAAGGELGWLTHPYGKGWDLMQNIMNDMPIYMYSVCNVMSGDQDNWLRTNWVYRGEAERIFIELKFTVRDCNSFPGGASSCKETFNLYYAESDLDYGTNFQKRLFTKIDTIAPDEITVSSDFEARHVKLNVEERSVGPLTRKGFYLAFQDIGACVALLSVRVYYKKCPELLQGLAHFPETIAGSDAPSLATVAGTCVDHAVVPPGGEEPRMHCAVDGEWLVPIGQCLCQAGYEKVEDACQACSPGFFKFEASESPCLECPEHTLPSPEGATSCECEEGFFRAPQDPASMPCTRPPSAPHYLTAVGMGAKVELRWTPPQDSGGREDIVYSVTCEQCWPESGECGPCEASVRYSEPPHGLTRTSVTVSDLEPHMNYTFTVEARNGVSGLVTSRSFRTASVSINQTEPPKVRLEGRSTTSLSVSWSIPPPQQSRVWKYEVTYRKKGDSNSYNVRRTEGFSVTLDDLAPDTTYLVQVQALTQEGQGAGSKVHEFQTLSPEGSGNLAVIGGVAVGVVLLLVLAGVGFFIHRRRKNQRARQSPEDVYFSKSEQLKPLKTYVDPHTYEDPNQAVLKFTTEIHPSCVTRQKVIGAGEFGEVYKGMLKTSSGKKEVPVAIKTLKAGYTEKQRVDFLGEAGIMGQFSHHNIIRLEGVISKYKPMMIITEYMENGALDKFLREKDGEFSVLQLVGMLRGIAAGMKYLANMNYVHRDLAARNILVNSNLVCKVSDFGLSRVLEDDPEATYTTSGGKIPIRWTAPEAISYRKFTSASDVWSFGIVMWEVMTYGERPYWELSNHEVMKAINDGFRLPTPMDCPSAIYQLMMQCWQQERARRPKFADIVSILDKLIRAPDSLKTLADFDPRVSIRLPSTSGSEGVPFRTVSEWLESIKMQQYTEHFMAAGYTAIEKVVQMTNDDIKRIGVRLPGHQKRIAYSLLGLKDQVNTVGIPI
Chain of MAP3K5 (human) (Q99683 whole entry, looked up): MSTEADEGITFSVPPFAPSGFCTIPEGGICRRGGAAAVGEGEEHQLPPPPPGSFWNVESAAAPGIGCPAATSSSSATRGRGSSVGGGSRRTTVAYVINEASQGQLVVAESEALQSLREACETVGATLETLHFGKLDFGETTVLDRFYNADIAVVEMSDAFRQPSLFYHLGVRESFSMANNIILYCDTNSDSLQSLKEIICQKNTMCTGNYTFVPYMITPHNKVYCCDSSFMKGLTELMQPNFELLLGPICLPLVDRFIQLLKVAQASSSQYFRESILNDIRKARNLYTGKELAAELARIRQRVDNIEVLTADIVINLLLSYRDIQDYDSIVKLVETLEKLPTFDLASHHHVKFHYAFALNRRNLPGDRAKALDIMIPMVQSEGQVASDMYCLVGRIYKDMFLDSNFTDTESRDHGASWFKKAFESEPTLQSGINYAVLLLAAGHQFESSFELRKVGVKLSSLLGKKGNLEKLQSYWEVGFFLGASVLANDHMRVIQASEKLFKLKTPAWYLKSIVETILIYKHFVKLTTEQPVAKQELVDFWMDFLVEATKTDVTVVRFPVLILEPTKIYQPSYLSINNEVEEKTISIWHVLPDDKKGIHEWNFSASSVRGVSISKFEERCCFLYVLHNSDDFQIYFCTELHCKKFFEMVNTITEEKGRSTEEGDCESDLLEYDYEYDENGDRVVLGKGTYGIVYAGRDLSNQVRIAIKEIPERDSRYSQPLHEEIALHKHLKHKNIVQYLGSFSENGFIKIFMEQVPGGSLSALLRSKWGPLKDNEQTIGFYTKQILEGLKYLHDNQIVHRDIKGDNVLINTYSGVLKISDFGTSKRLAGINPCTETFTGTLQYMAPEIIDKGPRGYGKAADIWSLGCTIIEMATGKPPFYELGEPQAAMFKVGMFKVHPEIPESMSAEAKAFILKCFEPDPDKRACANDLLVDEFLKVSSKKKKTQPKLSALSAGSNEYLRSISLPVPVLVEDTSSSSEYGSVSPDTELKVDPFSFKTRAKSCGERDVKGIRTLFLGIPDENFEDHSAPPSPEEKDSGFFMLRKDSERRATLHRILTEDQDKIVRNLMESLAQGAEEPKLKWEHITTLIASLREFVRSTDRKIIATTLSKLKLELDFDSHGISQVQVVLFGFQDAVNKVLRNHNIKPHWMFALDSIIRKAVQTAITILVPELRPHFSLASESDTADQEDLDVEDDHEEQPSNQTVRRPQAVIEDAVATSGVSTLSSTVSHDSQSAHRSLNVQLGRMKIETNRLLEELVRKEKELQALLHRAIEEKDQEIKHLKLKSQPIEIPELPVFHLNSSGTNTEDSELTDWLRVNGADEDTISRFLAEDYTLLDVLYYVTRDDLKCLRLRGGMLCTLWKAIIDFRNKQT
Chain of DSTYK (human) (Q6XUX3 whole entry, looked up): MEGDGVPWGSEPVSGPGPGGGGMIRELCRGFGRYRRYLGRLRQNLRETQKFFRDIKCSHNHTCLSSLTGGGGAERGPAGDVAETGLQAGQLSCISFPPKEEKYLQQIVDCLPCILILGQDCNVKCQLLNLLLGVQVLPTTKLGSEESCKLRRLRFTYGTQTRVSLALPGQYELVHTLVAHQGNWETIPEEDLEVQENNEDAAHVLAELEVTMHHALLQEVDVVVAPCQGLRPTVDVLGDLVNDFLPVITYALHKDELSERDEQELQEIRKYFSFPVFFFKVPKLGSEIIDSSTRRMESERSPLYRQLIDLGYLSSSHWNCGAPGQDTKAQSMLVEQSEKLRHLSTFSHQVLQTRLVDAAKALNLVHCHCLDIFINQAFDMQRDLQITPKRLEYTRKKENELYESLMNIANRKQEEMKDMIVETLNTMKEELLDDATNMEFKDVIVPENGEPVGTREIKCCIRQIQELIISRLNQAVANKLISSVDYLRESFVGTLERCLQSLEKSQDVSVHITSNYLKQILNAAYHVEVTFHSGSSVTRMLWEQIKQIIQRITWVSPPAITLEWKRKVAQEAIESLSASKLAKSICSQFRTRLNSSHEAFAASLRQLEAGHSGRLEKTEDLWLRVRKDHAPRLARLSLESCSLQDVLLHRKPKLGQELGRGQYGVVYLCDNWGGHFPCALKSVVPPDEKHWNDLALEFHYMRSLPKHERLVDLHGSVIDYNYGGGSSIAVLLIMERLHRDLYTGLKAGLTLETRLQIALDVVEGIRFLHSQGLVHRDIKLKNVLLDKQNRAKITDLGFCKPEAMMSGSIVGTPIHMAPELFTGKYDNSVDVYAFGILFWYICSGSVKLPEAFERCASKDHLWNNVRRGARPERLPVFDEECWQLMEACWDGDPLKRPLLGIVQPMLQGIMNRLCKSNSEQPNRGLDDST
Chain of STK25 (human) (O00506 whole entry, looked up): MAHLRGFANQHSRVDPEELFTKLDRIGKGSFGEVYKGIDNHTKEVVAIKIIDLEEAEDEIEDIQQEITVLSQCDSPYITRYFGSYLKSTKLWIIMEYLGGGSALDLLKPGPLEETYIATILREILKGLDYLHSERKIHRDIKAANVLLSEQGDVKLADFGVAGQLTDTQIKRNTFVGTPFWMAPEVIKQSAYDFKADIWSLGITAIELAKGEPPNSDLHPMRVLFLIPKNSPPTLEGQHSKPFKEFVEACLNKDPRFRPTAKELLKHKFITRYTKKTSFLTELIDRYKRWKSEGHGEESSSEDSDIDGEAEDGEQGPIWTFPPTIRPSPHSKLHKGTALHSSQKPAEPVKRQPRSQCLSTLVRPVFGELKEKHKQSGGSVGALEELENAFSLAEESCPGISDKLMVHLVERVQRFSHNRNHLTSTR

SMILES	residual activity (CDC42BPA (human)) [%]	residual activity (PIM1 (human)) [%]	residual activity (AKT3 (human)) [%]	residual activity (EPHA5 (human)) [%]	residual activity (EPHA2 (human)) [%]	residual activity (DSTYK (human)) [%]	residual activity (PIM2 (human)) [%]	residual activity (CSNK1G1 (human)) [%]	residual activity (CDK1 CCNB1 (human)) [%]	residual activity (NTRK1 (human)) [%]	residual activity (ACVR1B (human)) [%]	residual activity (MAP3K7 TAB1 (human)) [%]	residual activity (PTK2B (human)) [%]	residual activity (RPS6KA3 KD1 KD2 (human)) [%]	residual activity (ITK (human)) [%]	residual activity (PRKCB1 (human)) [%]	residual activity (RPS6KB1 (human)) [%]	residual activity (DAPK3 (human)) [%]	residual activity (STK25 (human)) [%]	residual activity (PRKCD (human)) [%]	also measured
O=C1Nc2cc(Br)ccc2/C1=C1/Nc2ccccc2/C1=N\O	94	96.1	89.4	70.4	70.9	102	95.5	87.6	50.5	34.5	100	79.3	56.7	65.7	46.6	98.5	79.6	84.9	96.3	103	residual activity (TXK (human)): 27.7%; residual activity (MET (human)): 70%; residual activity (MAPK10 (human)): 97.9%; residual activity (YES1 (human)): 15.8%; residual activity (PRKD3 (human)): 87.8%; residual activity (DYRK1B (human)): 80.3%; residual activity (MAP3K2 (human)): 90.3%; residual activity (RPS6KA4 KD2 (human)): 56.1%; residual activity (VRK1 (human)): 98%; residual activity (MAP3K5 (human)): 91.6%; residual activity (FGFR3 (human)): 54.6%; residual activity (MAP3K14 (human)): 89.6%; residual activity (CHEK2 (human)): 48.3%; residual activity (BTK (human)): 13.1%; residual activity (ADRBK2 (human)): 104%; residual activity (HIPK3 (human)): 64.8%; residual activity (CAMK2G (human)): 28.3%; residual activity (CAMKK1 (human)): 50.5%; residual activity (MAPK11 (human)): 99.6%; residual activity (PAK3 (human)): 99.7%
C#Cc1cccc(Nc2ncnc3cc(OCCOC)c(OCCOC)cc23)c1	88.5	97	74.6	99.1	91.3	107	97.9	104	97.2	102	101	88.8	97.6	100	106	92.4	95.1	95.4	99.4	104	residual activity (PRKD3 (human)): 86.5%; residual activity (DYRK1B (human)): 93.7%; residual activity (MAP3K2 (human)): 117%; residual activity (VRK1 (human)): 103%; residual activity (MAP3K5 (human)): 102%; residual activity (CHEK2 (human)): 100%; residual activity (ADRBK2 (human)): 94.8%; residual activity (HIPK3 (human)): 102%; residual activity (CAMK2G (human)): 115%; residual activity (CAMKK1 (human)): 98.7%; residual activity (MAPK11 (human)): 97.8%; residual activity (PAK3 (human)): 106%
CS(=O)c1ccc(-c2nc(-c3ccc(F)cc3)c(-c3ccncc3)[nH]2)cc1 (configuration not stated)	94.3	103	102	89.5	94.8	100	104	95.7	99.1	100	127	94	92.5	95.7	97	74	97.4	95.5	111	107	residual activity (TXK (human)): 63.9%; residual activity (TNK2 (human)): 82.1%; residual activity (MET (human)): 103%; residual activity (MAPK10 (human)): 114%; residual activity (YES1 (human)): 92.6%; residual activity (PRKD3 (human)): 84.1%; residual activity (DYRK1B (human)): 104%; residual activity (MAP3K2 (human)): 95.3%; residual activity (RPS6KA4 KD2 (human)): 99.6%; residual activity (MAP3K5 (human)): 107%; residual activity (FGFR3 (human)): 97%; residual activity (MAP3K14 (human)): 118%; residual activity (CHEK2 (human)): 99.6%; residual activity (BTK (human)): 97.2%; residual activity (ADRBK2 (human)): 98.2%; residual activity (HIPK3 (human)): 103%; residual activity (CAMK2G (human)): 82.2%; residual activity (CAMKK1 (human)): 125%; residual activity (MAPK11 (human)): 68.9%; residual activity (PAK3 (human)): 102%
